Test [1] deals with TGF-beta receptor type-2 (Homo sapiens) (UniProt P37173). Description: Inhibition of TGFBR2 (unknown origin) assessed as remaining activity at 1 uM by Kinome scan method relative to control.
Test [2] concerns the target T1, Myosin light chain kinase (Homo sapiens) (UniProt Q32MK0).
T1 sequence (whole entry): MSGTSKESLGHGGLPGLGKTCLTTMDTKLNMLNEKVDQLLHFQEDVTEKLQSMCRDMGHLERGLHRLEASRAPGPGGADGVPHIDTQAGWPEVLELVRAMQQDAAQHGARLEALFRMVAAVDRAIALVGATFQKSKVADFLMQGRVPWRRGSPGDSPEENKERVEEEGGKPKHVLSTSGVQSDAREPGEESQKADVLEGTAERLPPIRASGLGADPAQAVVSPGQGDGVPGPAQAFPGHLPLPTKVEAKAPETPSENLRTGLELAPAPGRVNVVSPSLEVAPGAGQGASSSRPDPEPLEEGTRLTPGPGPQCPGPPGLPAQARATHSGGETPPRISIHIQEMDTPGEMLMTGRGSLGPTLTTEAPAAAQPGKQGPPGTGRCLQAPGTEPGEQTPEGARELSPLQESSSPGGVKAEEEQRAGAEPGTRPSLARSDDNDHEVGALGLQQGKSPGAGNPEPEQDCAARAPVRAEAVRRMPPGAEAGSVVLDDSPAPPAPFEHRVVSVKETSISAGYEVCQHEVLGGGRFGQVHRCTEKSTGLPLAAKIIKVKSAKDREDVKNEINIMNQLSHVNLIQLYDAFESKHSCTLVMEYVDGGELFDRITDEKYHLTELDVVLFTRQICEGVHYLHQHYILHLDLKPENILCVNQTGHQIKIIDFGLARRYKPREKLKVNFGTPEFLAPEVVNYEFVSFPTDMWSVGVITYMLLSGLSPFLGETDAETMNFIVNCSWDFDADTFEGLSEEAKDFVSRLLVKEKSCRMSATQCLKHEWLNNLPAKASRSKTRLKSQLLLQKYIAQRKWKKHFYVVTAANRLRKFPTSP
Kind of test: Inhibition of MLCK (unknown origin) assessed as remaining activity at 1 uM by Kinome scan method relative to control.

In test [3] the target is RAC-gamma serine/threonine-protein kinase (Homo sapiens) (UniProt Q9Y243). Kind of test: Inhibition of AKT3 (unknown origin) assessed as remaining activity at 1 uM by Kinome scan method relative to control.
The target in test [4] is Serine/threonine-protein kinase RIO1 (Homo sapiens) (UniProt Q9BRS2). Description: Inhibition of RIOK1 (unknown origin) assessed as remaining activity at 1 uM by Kinome scan method relative to control.
Test [5] deals with Phosphatidylinositol 5-phosphate 4-kinase type-2 beta (Homo sapiens) (UniProt P78356). Description: Inhibition of PIP5K2B (unknown origin) assessed as remaining activity at 1 uM by Kinome scan method relative to control.
Test [6] concerns the target T2, Ephrin type-A receptor 3 (Homo sapiens) (UniProt P29320).
T2 sequence (whole entry): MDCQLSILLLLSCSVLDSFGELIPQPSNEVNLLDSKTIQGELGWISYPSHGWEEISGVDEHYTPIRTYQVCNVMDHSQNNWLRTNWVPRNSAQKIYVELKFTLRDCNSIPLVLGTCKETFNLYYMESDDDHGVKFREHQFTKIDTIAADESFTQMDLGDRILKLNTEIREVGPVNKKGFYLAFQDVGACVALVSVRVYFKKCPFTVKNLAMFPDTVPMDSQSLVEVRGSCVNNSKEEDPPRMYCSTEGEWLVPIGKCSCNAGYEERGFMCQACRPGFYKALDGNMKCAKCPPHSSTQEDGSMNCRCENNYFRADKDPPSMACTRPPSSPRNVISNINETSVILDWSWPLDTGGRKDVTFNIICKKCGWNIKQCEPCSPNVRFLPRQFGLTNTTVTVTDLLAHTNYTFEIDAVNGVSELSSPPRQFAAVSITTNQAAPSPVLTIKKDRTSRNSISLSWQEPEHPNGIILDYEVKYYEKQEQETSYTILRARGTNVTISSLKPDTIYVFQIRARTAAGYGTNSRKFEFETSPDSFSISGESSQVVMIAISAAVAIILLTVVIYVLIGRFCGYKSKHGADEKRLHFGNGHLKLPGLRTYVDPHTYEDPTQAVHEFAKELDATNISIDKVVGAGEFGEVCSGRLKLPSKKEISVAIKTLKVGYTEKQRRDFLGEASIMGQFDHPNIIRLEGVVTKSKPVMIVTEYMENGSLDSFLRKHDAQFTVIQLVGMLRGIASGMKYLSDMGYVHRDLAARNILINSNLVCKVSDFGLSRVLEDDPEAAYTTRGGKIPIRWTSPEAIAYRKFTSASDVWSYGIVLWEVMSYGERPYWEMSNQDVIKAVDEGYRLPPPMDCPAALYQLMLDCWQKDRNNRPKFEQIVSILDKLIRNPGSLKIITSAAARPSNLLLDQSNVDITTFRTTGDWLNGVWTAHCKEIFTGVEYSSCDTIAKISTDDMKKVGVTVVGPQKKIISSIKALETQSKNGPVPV
Description: Inhibition of EPHA3 (unknown origin) assessed as remaining activity at 1 uM by Kinome scan method relative to control.

In test [7] the target is T3, Serine/threonine-protein kinase Nek2 (Homo sapiens) (UniProt P51955).
T3 sequence (whole entry): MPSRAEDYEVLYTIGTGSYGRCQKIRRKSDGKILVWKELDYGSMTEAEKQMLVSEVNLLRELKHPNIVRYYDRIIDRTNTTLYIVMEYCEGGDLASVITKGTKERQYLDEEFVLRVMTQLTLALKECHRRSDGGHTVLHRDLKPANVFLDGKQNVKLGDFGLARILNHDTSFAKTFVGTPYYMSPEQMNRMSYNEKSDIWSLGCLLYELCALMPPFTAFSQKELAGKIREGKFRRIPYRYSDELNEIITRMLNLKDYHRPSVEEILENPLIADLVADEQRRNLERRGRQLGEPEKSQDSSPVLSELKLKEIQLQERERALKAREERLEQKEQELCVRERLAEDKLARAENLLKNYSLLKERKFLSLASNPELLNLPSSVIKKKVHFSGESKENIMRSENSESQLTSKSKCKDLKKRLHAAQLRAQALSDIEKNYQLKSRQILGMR
Kind of test: Inhibition of NEK2 (unknown origin) assessed as remaining activity at 1 uM by Kinome scan method relative to control.

In test [8] the target is Misshapen-like kinase 1 (Homo sapiens) (UniProt Q8N4C8). Description: Inhibition of MINK (unknown origin) assessed as remaining activity at 1 uM by Kinome scan method relative to control.
Test [9] concerns the target Cyclin-dependent kinase 14 (Homo sapiens) (UniProt O94921). Description: Inhibition of PFTK1 (unknown origin) assessed as remaining activity at 1 uM by Kinome scan method relative to control.
Test [10] has as its target Tyrosine-protein kinase JAK2 (Homo sapiens) (UniProt O60674). Kind of test: Inhibition of JAK2 JH1 domain (unknown origin) assessed as remaining activity at 1 uM by Kinome scan method relative to control.
Test [11] deals with Mitogen-activated protein kinase kinase kinase kinase 3 (Homo sapiens) (UniProt Q8IVH8). Kind of test: Inhibition of MAP4K3 (unknown origin) assessed as remaining activity at 1 uM by Kinome scan method relative to control.
Chain of Mitogen-activated protein kinase kinase kinase kinase 3 (Homo sapiens) (Q8IVH8 whole entry): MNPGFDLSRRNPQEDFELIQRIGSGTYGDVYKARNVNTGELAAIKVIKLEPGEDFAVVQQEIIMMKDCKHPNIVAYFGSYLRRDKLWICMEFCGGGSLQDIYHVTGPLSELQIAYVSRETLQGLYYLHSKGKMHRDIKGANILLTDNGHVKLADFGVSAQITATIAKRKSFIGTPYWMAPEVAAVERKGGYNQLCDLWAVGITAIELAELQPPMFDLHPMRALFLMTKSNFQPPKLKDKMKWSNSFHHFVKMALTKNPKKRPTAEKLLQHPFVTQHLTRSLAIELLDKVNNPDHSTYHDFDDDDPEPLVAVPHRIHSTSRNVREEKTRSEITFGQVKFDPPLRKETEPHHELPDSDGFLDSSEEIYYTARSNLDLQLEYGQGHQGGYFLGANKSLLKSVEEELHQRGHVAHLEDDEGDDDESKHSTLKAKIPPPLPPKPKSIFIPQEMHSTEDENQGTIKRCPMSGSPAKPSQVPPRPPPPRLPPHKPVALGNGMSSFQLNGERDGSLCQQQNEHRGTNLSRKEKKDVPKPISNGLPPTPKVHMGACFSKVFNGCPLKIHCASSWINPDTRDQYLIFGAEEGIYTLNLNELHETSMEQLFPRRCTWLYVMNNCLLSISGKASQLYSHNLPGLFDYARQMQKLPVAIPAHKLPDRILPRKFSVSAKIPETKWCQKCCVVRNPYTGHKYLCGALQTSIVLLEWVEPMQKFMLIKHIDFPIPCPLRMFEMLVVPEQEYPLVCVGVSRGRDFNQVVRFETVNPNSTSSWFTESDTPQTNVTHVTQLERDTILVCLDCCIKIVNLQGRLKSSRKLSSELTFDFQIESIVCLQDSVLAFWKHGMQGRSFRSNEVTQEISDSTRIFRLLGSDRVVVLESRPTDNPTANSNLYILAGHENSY

Chain of Misshapen-like kinase 1 (Homo sapiens) (Q8N4C8 whole entry, looked up): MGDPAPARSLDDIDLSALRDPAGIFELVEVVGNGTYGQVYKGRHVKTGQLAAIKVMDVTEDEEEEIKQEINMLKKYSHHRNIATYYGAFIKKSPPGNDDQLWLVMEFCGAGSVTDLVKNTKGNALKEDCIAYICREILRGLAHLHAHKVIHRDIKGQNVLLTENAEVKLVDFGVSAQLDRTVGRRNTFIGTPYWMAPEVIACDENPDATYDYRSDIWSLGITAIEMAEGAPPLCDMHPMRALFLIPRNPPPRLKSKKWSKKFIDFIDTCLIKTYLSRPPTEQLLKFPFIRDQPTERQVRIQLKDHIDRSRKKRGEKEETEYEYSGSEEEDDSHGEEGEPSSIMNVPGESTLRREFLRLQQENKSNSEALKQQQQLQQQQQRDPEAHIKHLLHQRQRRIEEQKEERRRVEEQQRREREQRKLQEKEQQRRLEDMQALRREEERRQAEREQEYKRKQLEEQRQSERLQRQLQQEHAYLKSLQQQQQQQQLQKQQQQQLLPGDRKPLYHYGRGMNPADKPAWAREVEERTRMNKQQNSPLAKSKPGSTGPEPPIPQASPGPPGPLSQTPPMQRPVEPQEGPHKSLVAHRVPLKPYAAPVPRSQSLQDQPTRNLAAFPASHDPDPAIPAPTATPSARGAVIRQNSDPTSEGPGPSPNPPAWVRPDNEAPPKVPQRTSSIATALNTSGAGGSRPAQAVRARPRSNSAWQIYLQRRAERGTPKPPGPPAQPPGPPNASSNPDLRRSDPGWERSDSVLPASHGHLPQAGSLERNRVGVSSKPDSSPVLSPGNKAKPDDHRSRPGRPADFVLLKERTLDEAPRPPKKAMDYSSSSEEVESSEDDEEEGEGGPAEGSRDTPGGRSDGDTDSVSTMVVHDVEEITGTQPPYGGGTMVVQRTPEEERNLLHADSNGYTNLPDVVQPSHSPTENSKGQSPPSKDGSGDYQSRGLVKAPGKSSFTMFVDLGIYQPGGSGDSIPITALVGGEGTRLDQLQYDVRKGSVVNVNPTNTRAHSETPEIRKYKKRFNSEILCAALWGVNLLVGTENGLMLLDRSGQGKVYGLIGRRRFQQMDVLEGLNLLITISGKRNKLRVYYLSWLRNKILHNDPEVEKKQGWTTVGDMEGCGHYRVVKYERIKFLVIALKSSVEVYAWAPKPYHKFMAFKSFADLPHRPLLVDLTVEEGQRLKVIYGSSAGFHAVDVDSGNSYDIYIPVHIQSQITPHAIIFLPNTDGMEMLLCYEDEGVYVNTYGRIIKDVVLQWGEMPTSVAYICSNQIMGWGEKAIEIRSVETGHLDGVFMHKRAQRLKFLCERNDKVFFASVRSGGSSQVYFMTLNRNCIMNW
Chain of RAC-gamma serine/threonine-protein kinase (Homo sapiens) (Q9Y243 whole entry): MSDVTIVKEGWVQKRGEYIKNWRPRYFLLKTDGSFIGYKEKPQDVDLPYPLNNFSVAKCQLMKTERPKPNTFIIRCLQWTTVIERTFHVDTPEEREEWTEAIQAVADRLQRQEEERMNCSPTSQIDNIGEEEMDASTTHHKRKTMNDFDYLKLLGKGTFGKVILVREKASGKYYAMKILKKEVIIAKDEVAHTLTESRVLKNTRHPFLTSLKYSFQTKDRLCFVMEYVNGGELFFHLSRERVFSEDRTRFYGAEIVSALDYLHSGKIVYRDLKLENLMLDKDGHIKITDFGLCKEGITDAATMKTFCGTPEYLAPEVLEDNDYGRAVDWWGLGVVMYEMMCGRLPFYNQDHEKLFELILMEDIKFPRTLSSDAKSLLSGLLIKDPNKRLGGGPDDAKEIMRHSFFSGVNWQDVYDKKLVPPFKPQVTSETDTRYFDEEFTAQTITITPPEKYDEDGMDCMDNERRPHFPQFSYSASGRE
Chain of Phosphatidylinositol 5-phosphate 4-kinase type-2 beta (Homo sapiens) (P78356 whole entry): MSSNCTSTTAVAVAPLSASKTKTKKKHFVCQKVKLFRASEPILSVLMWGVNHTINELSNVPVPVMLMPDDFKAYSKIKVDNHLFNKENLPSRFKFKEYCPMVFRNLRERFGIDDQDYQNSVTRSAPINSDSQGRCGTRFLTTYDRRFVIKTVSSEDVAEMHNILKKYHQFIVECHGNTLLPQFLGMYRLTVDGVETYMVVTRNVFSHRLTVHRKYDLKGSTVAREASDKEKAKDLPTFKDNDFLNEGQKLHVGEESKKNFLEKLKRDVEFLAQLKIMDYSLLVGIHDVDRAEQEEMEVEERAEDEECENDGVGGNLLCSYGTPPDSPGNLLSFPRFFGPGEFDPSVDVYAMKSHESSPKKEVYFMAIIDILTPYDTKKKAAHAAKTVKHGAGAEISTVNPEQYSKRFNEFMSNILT
Chain of Cyclin-dependent kinase 14 (Homo sapiens) (O94921 whole entry, the tested form may be a part): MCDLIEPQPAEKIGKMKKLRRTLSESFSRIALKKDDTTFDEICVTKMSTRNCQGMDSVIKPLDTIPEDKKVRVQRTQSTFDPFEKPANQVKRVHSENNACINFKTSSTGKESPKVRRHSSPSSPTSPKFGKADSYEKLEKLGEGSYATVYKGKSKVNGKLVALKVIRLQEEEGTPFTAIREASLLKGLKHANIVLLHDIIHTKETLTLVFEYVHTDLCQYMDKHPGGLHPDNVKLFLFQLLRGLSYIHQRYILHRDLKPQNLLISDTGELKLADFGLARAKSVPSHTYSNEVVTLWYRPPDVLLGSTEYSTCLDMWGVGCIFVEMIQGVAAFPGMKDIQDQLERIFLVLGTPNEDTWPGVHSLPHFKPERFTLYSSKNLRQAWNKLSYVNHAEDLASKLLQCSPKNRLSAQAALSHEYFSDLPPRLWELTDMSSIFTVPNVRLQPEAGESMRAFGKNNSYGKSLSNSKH
Chain of TGF-beta receptor type-2 (Homo sapiens) (P37173 whole entry): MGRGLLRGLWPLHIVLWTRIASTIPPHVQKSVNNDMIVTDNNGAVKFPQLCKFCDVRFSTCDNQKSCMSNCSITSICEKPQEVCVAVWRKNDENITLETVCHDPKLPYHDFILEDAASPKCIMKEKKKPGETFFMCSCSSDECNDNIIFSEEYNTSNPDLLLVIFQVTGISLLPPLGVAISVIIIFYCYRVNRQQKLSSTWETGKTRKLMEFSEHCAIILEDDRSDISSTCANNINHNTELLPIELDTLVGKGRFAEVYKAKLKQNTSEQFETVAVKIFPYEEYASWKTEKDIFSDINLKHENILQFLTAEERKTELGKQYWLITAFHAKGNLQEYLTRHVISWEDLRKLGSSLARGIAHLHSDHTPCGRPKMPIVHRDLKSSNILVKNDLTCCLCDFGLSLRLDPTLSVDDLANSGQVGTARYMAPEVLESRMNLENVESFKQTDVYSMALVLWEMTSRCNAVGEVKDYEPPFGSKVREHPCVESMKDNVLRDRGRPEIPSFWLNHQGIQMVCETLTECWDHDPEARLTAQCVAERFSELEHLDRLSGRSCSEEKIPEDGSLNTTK
Chain of Serine/threonine-protein kinase RIO1 (Homo sapiens) (Q9BRS2 whole entry): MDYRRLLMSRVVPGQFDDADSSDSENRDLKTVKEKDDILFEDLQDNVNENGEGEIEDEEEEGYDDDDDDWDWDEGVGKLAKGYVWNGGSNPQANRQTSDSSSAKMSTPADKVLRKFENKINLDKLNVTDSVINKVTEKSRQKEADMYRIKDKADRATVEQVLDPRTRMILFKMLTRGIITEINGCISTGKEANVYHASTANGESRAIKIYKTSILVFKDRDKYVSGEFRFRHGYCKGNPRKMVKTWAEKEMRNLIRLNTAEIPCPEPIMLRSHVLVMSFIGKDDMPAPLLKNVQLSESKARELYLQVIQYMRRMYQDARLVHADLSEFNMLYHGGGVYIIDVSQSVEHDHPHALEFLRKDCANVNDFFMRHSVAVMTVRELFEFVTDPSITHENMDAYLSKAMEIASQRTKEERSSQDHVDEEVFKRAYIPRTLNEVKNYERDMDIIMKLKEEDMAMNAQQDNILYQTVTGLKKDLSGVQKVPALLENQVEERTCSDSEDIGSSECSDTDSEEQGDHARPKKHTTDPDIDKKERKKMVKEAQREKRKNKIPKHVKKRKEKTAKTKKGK

As for `Nc1ccccc1Nc1ccc2c(c1)CCc1ccccc1C2=O`, the Activity in test [1] was found to be 93%; in [2], 85%; in [3] it was 88%; in [4] it was 94%; in test [5], 86%; in test [6], 83%. In addition, the Activity worked out at 90% in test [7]; 81% in [8]; 94% in [9]; 80% in test [10]; 75% in test [11].
Regarding `O=C1c2ccc(Nc3ccc(F)cc3F)cc2CCc2ccc(OC[C@H](O)CO)cc21` [Skepinone-L], the Activity in [1] came to 100%; in [2], 100%; in test [3] it was 90%; in test [4] it was 95%; in test [5], 100%; in test [6] it was 94%. Besides, the Activity in test [7] came to 94%; in test [8] it was 100%; in test [9], 86%; in [10], 100%; in [11], 88%.
